Results reported in US11053204B2, “Pyrimidinyloxy benzene derivatives as herbicides” (FMC Corporation, priority 2015, dated 2021).

Legend:
Format in all cases: in vivo
[1] = tested on: Italian ryegrass (Lolium multiflorum); assay: Test A postemergence, visual injury rating; conditions: 0 is no effect, 100 is complete control
Summary of the method: (§1)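 Pre- and postemergence greenhouse screen. Soil: loam + sand. Spray carrier: solvent mixture, non-phytotoxic, with surfactant. Post timing at 1–2 leaves, height 2–10 cm. Readout: visual injury on a 0–100 scale roughly 10 days after application, untreated plants as reference.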

[2] = tested on: barnyardgrass (Echinochloa crus-galli); assay: Test A postemergence, visual injury rating; conditions: 0 is no effect, 100 is complete control
Summary of the method: as §1

[3] = tested on: blackgrass (Alopecurus myosuroides); assay: Test A postemergence, visual injury rating; conditions: 0 is no effect, 100 is complete control
Summary of the method: as §1

corn (Zea mays) = assay: Test A postemergence, visual injury rating; conditions: 0 is no effect, 100 is complete control
Summary of the method: as §1

[4] = tested on: galium (catchweed bedstraw, Galium aparine); assay: Test A postemergence, visual injury rating; conditions: 0 is no effect, 100 is complete control
Summary of the method: as §1

[5] = tested on: giant foxtail (Setaria faberii); assay: Test A postemergence, visual injury rating; conditions: 0 is no effect, 100 is complete control
Summary of the method: as §1

kochia (Kochia scoparia) = assay: Test A postemergence, visual injury rating; conditions: 0 is no effect, 100 is complete control
Summary of the method: as §1

[6] = tested on: pigweed (Amaranthus retroflexus); assay: Test A postemergence, visual injury rating; conditions: 0 is no effect, 100 is complete control
Summary of the method: as §1

[7] = tested on: ragweed (common ragweed, Ambrosia elatior); assay: Test A postemergence, visual injury rating; conditions: 0 is no effect, 100 is complete control
Summary of the method: as §1

[8] = tested on: wheat (Triticum aestivum); assay: Test A postemergence, visual injury rating; conditions: 0 is no effect, 100 is complete control
Summary of the method: as §1

[9] = tested on: blackgrass (Alopecurus myosuroides); assay: Test C postemergence, plant response rating; conditions: for Plant response rating, Blackgrass: scale 0 to 100; for Blackgrass plant response rating: scale 0 to 100 (0 no effect, 100 complete control)
Summary of the method: (§2)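 Visual injury score, 0 = no effect, 100 = complete control, assigned against untreated controls after 13 to 15 d in the greenhouse. Compounds were applied in a surfactant-containing non-phytotoxic solvent mix, preemergence to seeded loam/sand or silt loam soil, or postemergence to 1- to 4-leaf plants (2 to 18 cm).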

[10] = tested on: chickweed (common chickweed, Stellaria media); assay: Test C postemergence, plant response rating; conditions: for Plant response rating, Chickweed: scale 0 to 100; for Chickweed plant response rating: scale 0 to 100 (0 no effect, 100 complete control)
Summary of the method: as §2

[11] = tested on: foxtail, giant (giant foxtail, Setaria faberii); assay: Test C postemergence, plant response rating; conditions: for Plant response rating, Foxtail, Giant: scale 0 to 100; for Foxtail, Giant plant response rating: scale 0 to 100 (0 no effect, 100 complete control)
Summary of the method: as §2

[12] = tested on: galium (catchweed bedstraw, Galium aparine); assay: Test C postemergence, plant response rating; conditions: for Plant response rating, Galium: scale 0 to 100; for Galium plant response rating: scale 0 to 100 (0 no effect, 100 complete control)
Summary of the method: as §2

[13] = tested on: oilseed rape (Brassica napus); assay: Test C postemergence, plant response rating; conditions: for Plant response rating, Oilseed Rape: scale 0 to 100; for Oilseed Rape plant response rating: scale 0 to 100 (0 no effect, 100 complete control)
Summary of the method: as §2

[14] = tested on: ryegrass, Italian (Italian ryegrass, Lolium multiflorum); assay: Test C postemergence, plant response rating; conditions: for Plant response rating, Ryegrass, Italian: scale 0 to 100; for Ryegrass, Italian plant response rating: scale 0 to 100 (0 no effect, 100 complete control)
Summary of the method: as §2

soybean (Glycine max) = assay: Test C postemergence, plant response rating; conditions: for Plant response rating, Soybean: scale 0 to 100; for Soybean plant response rating: scale 0 to 100 (0 no effect, 100 complete control)
Summary of the method: as §2

[15] = tested on: waterhemp (common waterhemp, Amaranthus rudis); assay: Test C postemergence, plant response rating; conditions: for Plant response rating, Waterhemp: scale 0 to 100; for Waterhemp plant response rating: scale 0 to 100 (0 no effect, 100 complete control)
Summary of the method: as §2

[16] = tested on: wheat (winter wheat, Triticum aestivum); assay: Test C postemergence, plant response rating; conditions: for Plant response rating, Wheat: scale 0 to 100; for Wheat plant response rating: scale 0 to 100 (0 no effect, 100 complete control)
Summary of the method: as §2

O=C(OCCC(F)(F)F)c1c(Br)cccc1Oc1ncc(Br)cn1 [Compound 33]
Ryegrass, Italian plant response rating (0 to 100 scale) ([1]; 125 g ai/ha): 30
Ryegrass, Italian plant response rating (0 to 100 scale) ([1]; 500 g ai/ha): 80
Barnyardgrass plant response rating (0 to 100 scale) ([2]; 125 g ai/ha): 80
Barnyardgrass plant response rating (0 to 100 scale) ([2]; 500 g ai/ha): 100
Blackgrass plant response rating (0 to 100 scale) ([3]; 125 g ai/ha): 60
Blackgrass plant response rating (0 to 100 scale) ([3]; 500 g ai/ha): 90
Corn plant response rating (0 to 100 scale) (corn (Zea mays); 125 g ai/ha): 30
Corn plant response rating (0 to 100 scale) (corn (Zea mays); 500 g ai/ha): 90
Galium plant response rating (0 to 100 scale) ([4]; 125 g ai/ha): 100
Galium plant response rating (0 to 100 scale) ([4]; 500 g ai/ha): 100
Foxtail, Giant plant response rating (0 to 100 scale) ([5]; 125 g ai/ha): 100
Foxtail, Giant plant response rating (0 to 100 scale) ([5]; 500 g ai/ha): 100
Kochia plant response rating (0 to 100 scale) (kochia (Kochia scoparia); 125 g ai/ha): 100
Kochia plant response rating (0 to 100 scale) (kochia (Kochia scoparia); 500 g ai/ha): 100
Pigweed plant response rating (0 to 100 scale) ([6]; 125 g ai/ha): 100
Pigweed plant response rating (0 to 100 scale) ([6]; 500 g ai/ha): 100
Ragweed plant response rating (0 to 100 scale) ([7]; 125 g ai/ha): 30
Ragweed plant response rating (0 to 100 scale) ([7]; 500 g ai/ha): 40
Wheat plant response rating (0 to 100 scale) ([8]; 125 g ai/ha): 20
Wheat plant response rating (0 to 100 scale) ([8]; 500 g ai/ha): 60
Plant response rating, Blackgrass ([9]; 16 g ai/ha): 5
Plant response rating, Blackgrass ([9]; 31 g ai/ha): 5
Blackgrass plant response rating ([9]; 62 g ai/ha): 10
Blackgrass plant response rating ([9]; 125 g ai/ha): 20
Plant response rating, Chickweed ([10]; 16 g ai/ha): 50
Plant response rating, Chickweed ([10]; 31 g ai/ha): 55
Chickweed plant response rating ([10]; 62 g ai/ha): 85
Chickweed plant response rating ([10]; 125 g ai/ha): 85
Plant response rating, Foxtail, Giant ([11]; 16 g ai/ha): 5
Plant response rating, Foxtail, Giant ([11]; 31 g ai/ha): 10
Foxtail, Giant plant response rating ([11]; 62 g ai/ha): 10
Foxtail, Giant plant response rating ([11]; 125 g ai/ha): 20
Plant response rating, Galium ([12]; 16 g ai/ha): 50
Plant response rating, Galium ([12]; 31 g ai/ha): 70
Galium plant response rating ([12]; 62 g ai/ha): 80
Galium plant response rating ([12]; 125 g ai/ha): 85
Plant response rating, Oilseed Rape ([13]; 16 g ai/ha): 35
Plant response rating, Oilseed Rape ([13]; 31 g ai/ha): 45
Oilseed Rape plant response rating ([13]; 62 g ai/ha): 55
Oilseed Rape plant response rating ([13]; 125 g ai/ha): 95
Plant response rating, Ryegrass, Italian ([14]; 16 g ai/ha): 0
Plant response rating, Ryegrass, Italian ([14]; 31 g ai/ha): 5
Ryegrass, Italian plant response rating ([14]; 62 g ai/ha): 5
Ryegrass, Italian plant response rating ([14]; 125 g ai/ha): 30
Plant response rating, Soybean (soybean (Glycine max); 16 g ai/ha): 25
Plant response rating, Soybean (soybean (Glycine max); 31 g ai/ha): 65
Soybean plant response rating (soybean (Glycine max); 62 g ai/ha): 30
Soybean plant response rating (soybean (Glycine max); 125 g ai/ha): 55
Plant response rating, Waterhemp ([15]; 16 g ai/ha): 90
Plant response rating, Waterhemp ([15]; 31 g ai/ha): 80
Waterhemp plant response rating ([15]; 62 g ai/ha): 100
Waterhemp plant response rating ([15]; 125 g ai/ha): 100
Plant response rating, Wheat ([16]; 16 g ai/ha): 0
Plant response rating, Wheat ([16]; 31 g ai/ha): 0
Wheat plant response rating ([16]; 62 g ai/ha): 0
Wheat plant response rating ([16]; 125 g ai/ha): 5
